# Read-outs that look alike come from different tables or passages of the source.
# Assays:
# Type in all cases: cell-based
# MDA-MB-435 cells = experiment: Cell proliferation assay (SRB), MDA-MB-435; conditions: EGFR −, Her-2 −, 2 days, SRB; for IC50: Homo sapiens, MDA-MB-435, 48 h, read-out: CELL IC50 MDA-MB-435
# [1] = target: mouse fibroblast cell line transfected with the HER-2 oncogene (3T3/neu) (UniProt P04626, cells depend on it, species not given); experiment: Cell proliferation assay (SRB), 3T3/neu; conditions: for GI50: EGFR −, Her-2 +++, 2 days, SRB, read-out: CELL IC50 3T3/NEU (converted)
# SW620 cells = experiment: Cell proliferation assay (SRB), SW620; conditions: EGFR −, Her-2 −, 2 days, SRB; for IC50: Homo sapiens, SW-620, 48 h, read-out: CELL IC50 SW620
# SK-Br-3 cells = experiment: Cell proliferation assay (SRB), SK-Br-3; conditions: EGFR −, Her-2 +++, 2 days, SRB; for IC50: Homo sapiens, SK-BR-3, 48 h, read-out: CELL IC50 SKBr3
# A431 cells = experiment: Cell proliferation assay (SRB), A431; conditions: for IC50: Homo sapiens, A-431, 48 h, read-out: CELL IC50 A431
Structure (SMILES),IC50 (MDA-MB-435 cells) [µg/mL],GI50 [1] [nM],IC50 (SW620 cells) [µg/mL],IC50 (SK-Br-3 cells) [µg/mL],"IC50 (A431 cells; EGFR +++, Her-2 +, 2 days, SRB) [µg/mL]",also measured
"CCOc1cc2ncc(C#N)c(Nc3ccc4cn[nH]c4c3)c2cc1OC [Example 31, 7-Ethoxy-4-(1H-indazol-6-ylamino)-6-methoxy-quinoline-3-carbonitrile]",–,74.3,–,–,–,–
"CCOc1cc2ncc(C#N)c(Nc3ccc4c(c3)OCCO4)c2cc1OCC [Example 23, 4-(2,3-Dihydro-benzo[1,4]dioxin-6-ylamino)-6,7-diethoxy-quinoline-3-carbonitrile]",–,958,–,–,–,–
"CCOc1cc2ncc(C#N)c(Nc3ccc4[nH]c(=O)oc(=O)c4c3)c2cc1OCC [Example 27, 4-(2,4-Dioxo-1,4-dihydro-2H-benzo[d][1,3]oxazin-6-ylamino)-6,7-diethoxy-quinoline-3-carbonitrile]",–,11000,–,–,–,–
"CCOc1cc2ncc(C#N)c(Nc3ccc4c(c3)CCC4)c2cc1OCC [Example 26, 6,7-Diethoxy-4-(indan-5-ylamino)-quinoline-3-carbonitrile]",–,53,0.294,–,–,–
COc1cc2ncc(C#N)c(Nc3ccc(Sc4nc5ccccc5c(=O)[nH]4)c(Cl)c3)c2cc1NC(=O)/C=C/CN(C)C [Example 46],–,–,–,–,–,"CELL IC50 MDA-MB-435 (MDA-MB-435 cells): >5 µg/mL; CELL IC50 3T3/NEU ([1]; mouse fibroblast cell line transfected with the her-2 oncogene (3t3/neu)): 0.15 µg/mL; CELL IC50 SW620 (SW620 cells): >5 µg/mL; CELL IC50 SKBr3 (SK-Br-3 cells): 0.06 µg/mL; CELL IC50 A431 (A431 cells; EGFR +++, Her-2 +, 2 days, SRB): 0.34 µg/mL"
"CCOc1cc2ncc(C#N)c(Nc3ccc(Oc4ccncc4)c(Cl)c3)c2cc1NC(=O)/C=C/CN(C)C [Example 56, (E)-N-{4-[3-chloro-4-(4-pyridinyloxy)anilino]-3-cyano-7-ethoxy-6-quinolinyl}-4-(dimethylamino)-2-butenamide]",2.06,> 9210,> 5,1.51,–,IC50 (A431 cells): 3.27 µg/mL
"CCOc1cc2c(Nc3ccc4cn[nH]c4c3)c(C#N)cnc2cc1OC [Example 32, 6-Ethoxy-4-(1H-indazol-6-ylamino)-7-methoxy-quinoline-3-carbonitrile]",–,13400,–,–,–,–
"COCCOc1cc2ncc(C#N)c(Nc3ccc4cn[nH]c4c3)c2cc1OCCOC [Example 24, 4-(1H-Indazol-6-ylamino)-6,7-bis-(2-methoxy-ethoxy)-quinoline-3-carbonitrile]",–,> 11500,–,–,–,–
"CCOc1cc2ncc(C#N)c(Nc3ccc4c(c3)CCC4=O)c2cc1OCC [Example 28, 6,7-Diethoxy-4-(1-oxo-indan-5-ylamino)-quinoline-3-carbonitrile]",–,80.3,0.0244,–,0.0181,–
"CCOc1cc2ncc(C#N)c(Nc3ccc4c(=O)[nH][nH]c(=O)c4c3)c2cc1OCC [Example 25, 4-(1,4-Dioxo-1,2,3,4-tetrahydro-phthalazin-6-ylamino)-6,7-diethoxy-quinoline-3-carbonitrile]",–,> 12000,–,–,–,–
"CCOc1cc2ncc(C#N)c(Nc3ccc4c(c3)C(=O)OC4)c2cc1OCC [Example 29, 6,7-Diethoxy-4-(3-oxo-1,3-dihydro-isobenzofuran-5-ylamino)-quinoline-3-carbonitrile]",–,8480,–,–,–,–

# Further lines, with some results ahead:
IC50 (MDA-MB-435 cells) [µg/mL],GI50 [1] [nM],IC50 (SW620 cells) [µg/mL],IC50 (SK-Br-3 cells) [µg/mL],"IC50 (A431 cells; EGFR +++, Her-2 +, 2 days, SRB) [µg/mL]",Structure (SMILES),also measured
2.54,> 10800,> 5,> 5,> 5,"CCOc1cc2ncc(C#N)c(Nc3ccc(Oc4ccncc4)c(Cl)c3)c2cc1[N+](=O)[O-] [Example 54, 4-[3-chloro-4-(4-pyridinyloxy)anilino]-7-ethoxy-6-nitro-3-quinolinecarbonitrile]",–
0.08,191,0.5,0.01,0.22,"COc1cc2ncc(C#N)c(Nc3ccc(Sc4ncc(-c5ccccc5)s4)c(Cl)c3)c2cc1NC(=O)/C=C/CN(C)C [Example 70, (E)-N-(4-{3-chloro-4-[(5-phenyl-1,3-thiazol-2-yl)sulfanyl]anilino}-3-cyano-7-methoxy-6-quinolinyl)-4-(dimethylamino)-2-butenamide]",–
0.2,17,0.32,0.006,0.24,"CCOc1cc2ncc(C#N)c(Nc3ccc(Sc4nc(C)cc(C)n4)c(Cl)c3)c2cc1NC(=O)/C=C/CN(C)C [Example 66, (E)-N-(4-{3-chloro-4-[(4,6-dimethyl-2-pyrimidinyl)sulfanyl]anilino}-3-cyano-7-ethoxy-6-quinolinyl)-4-(dimethylamino)-2-butenamide]",–
> 5,> 11100,> 5,2.44,> 5,"CCOc1cc2ncc(C#N)c(Nc3ccc(Cn4ccnc4)c(Cl)c3)c2cc1[N+](=O)[O-] [Example 60, 4-[3-chloro-4-(1H-imidazol-1-ylmethyl)anilino]-7-ethoxy-6-nitro-3-quinolinecarbonitrile]",–
–,> 11200,–,–,–,"CCOc1cc2ncc(C#N)c(Nc3ccc4c(c3)C(=O)NCC(=O)N4C)c2cc1OCC [Example 33, 6,7-Diethoxy-4-(1-methyl-2,5-dioxo-2,3,4,5-tetrahydro-1H-benzo[e][1,4]diazepin-7-ylamino)-quinoline-3-carbonitrile]",–
4.1,> 9860,> 5,> 5,> 5,"CCOc1cc2ncc(C#N)c(Nc3ccc(Sc4nc(C)cc(C)n4)c(Cl)c3)c2cc1[N+](=O)[O-] [Example 74, 4-{3-chloro-4-[(4,6-dimethyl-2-pyrimidinyl)sulfanyl]anilino}-7-ethoxy-6-nitro-3-quinolinecarbonitrile]",–
0.95,1440,1.05,0.179,0.728,"CCOc1cc2ncc(C#N)c(Nc3ccc(Nc4nnc(C(F)(F)F)s4)c(Cl)c3)c2cc1NC(=O)/C=C/CN(C)C [Example 53, (E)-N-[4-(3-chloro-4-{[5-(trifluoromethyl)-1,3,4-thiadiazol-2-yl]amino}anilino)-3-cyano-7-ethoxy-6-quinolinyl]-4-(dimethylamino)-2-butenamide]",–
–,347,2.18,0.32,0.775,"COc1cc2c(Nc3ccc(Sc4nccn4C)c(Cl)c3)c(C#N)cnc2cc1OCCCN1CCOCC1 [Example 51, 4-{3-chloro-4-[(1-methyl-1H-imidazol-2-yl)sulfanyl]anilino}-6-methoxy-7-[3-(4-morpholinyl)propoxy]-3-quinolinecarbonitrile]",–
0.35,558,0.15,0.124,0.148,"COc1cc2ncc(C#N)c(Nc3ccc(Sc4nccs4)c(Cl)c3)c2cc1[N+](=O)[O-] [Example 38, 4-{[3-chloro-4-(1,3-thiazol-2-ylsulfanyl)phenyl]amino}-7-methoxy-6-nitro-3-quinolinecarbonitrile]",–
1.3,4440,1.36,0.98,0.76,"CCOc1cc2ncc(C#N)c(Nc3ccc(Sc4nc(C)cc(C)n4)c(Cl)c3)c2cc1N [Example 75, 6-amino-4-{3-chloro-4-[(4,6-dimethyl-2-pyrimidinyl)sulfanyl]anilino}-7-ethoxy-3-quinolinecarbonitrile]",–
–,1780,3.69,0.104,1.83,"COc1cc2c(Nc3ccc(Sc4nccn4C)c(Cl)c3)c(C#N)cnc2cc1OCCCn1ccnn1 [Example 73, 4-{3-chloro-4-[(1-methyl-1H-imidazol-2-yl)sulfanyl]anilino}-6-methoxy-7-[3-(1H-1,2,3-triazol-1-yl)propoxy]-3-quinolinecarbonitrile]",–

# — patent publication US7982043B2, “Protein tyrosine kinase enzyme inhibitors” (Wyeth LLC, priority 2003, dated 2011)
